Source: patent US12343363B2, “Lactic acid bacterial composition for the treatment of bacterial vaginal infections by Gardnerella vaginalis and, if present, of concurrent fungal infections” (PROBIOTICAL S.P.A., priority 2016, dated 2025)
In brackets after ≈: the same amount, converted by molar mass.

Experiments:
[1] = tested on: Candida tropicalis ATCC 750; assay: Fluconazole MIC by E-test; type: cell-based; conditions: ATCC750, E_test, range 0.016-256 μg/ml, read-out: MIC (minimum inhibitory concentration)
Text: (§1) The strains of Candida being used in the present study were purchased from the American Type Culture Collection (ATCC). Specifically, the following biotypes were used: C. albicans ATCC 10231, C. parapsilosis ATCC 22019, C. krusei ATCC 6258, C. glabrata ATCC 2001 and C. tropicalis ATCC 750 (14). The strains of lactobacilli of this study, all isolated from vaginal swabs of healthy female subjects or directly brushing the intestinal mucosa of healthy humans, were classified based on their phenotypic and genotypic characteristics: L. fermentum LF5 (DSM 32277), L. fermentum LF09 (DSM 18298), L. fermentum LF10 (DSM 19187) and L. fermentum LF11 (DSM 19188).
(§2) Evaluation of the fungicidal activity. The minimum inhibitory concentration (MIC) for fluconazole was determined by E-test (bioMerieux Italy, Florence) with MHE agar. The plates were incubated under aerobic conditions at 30° C. and read after 24 hours. Furthermore, since there is no specific E-test for miconazole, the MIC was determined by using the broth macrodilution method. We assessed the activity of serially diluted fluconazole and miconazole (Sigma-Aldrich, Missouri, USA) (from […] to […]) against the Candida strains. Serial dilutions of azoles were prepared in Sabouraud Dextrose Broth in the presence of strains of Candida and broths were incubated under aerobic conditions at 30° C. and then read at an optical density (DO) of 560 nm.

[2] = tested on: Candida krusei ATCC 6258; assay: Fluconazole MIC by E-test; type: cell-based; conditions: Pichia kudriavzevii, ATCC6258; E_test, range 0.016-256 μg/ml; read-out: MIC (minimum inhibitory concentration)
Text: as §1, §2

[3] = tested on: Candida parapsilosis ATCC 22019; assay: Fluconazole MIC by E-test; type: cell-based; conditions: Lodderomyces parapsilosis, ATCC22019; E_test, range 0.016-256 μg/ml; read-out: MIC (minimum inhibitory concentration)
Text: as §1, §2

[4] = tested on: Candida glabrata ATCC 2001; assay: Fluconazole MIC by E-test; type: cell-based; conditions: Nakaseomyces glabratus, ATCC2001; E_test, range 0.016-256 μg/ml; read-out: MIC (minimum inhibitory concentration)
Text: as §1, §2

[5] = tested on: C. tropicalis ATCC 750; assay: Miconazole broth macrodilution test (optical density); type: cell-based, Candida tropicalis
Text: as §1
(§3) The probiotic strains were cultured overnight in De Man, Rogosa and Sharpe (MRS) medium (Difco, B D, Maryland). In all the experiments, fresh culture media for all the strains of Candida were used. Before the experiment, the single strains of Candida were cultured in Sabouraud Dextrose Broth (Difco, B D, Maryland), an optimal medium for yeasts, for 48 hours under aerobic conditions.
as §2

[6] = tested on: Candida albicans; assay: Single-blind clinical study of LF5 vaginal capsules compared with miconazole; type: in vivo, human
Procedure: 100 patients with vaginal candidiasis, average age of 38.0 years (range 19-61 years) randomly assigned to two groups, which resulted homogeneous, each of 50 patients treated with miconazole or LF5 dosed at ≤10^9 in vaginal capsule formulation at a dosage of 1 vaginal capsule at night for three consecutive days, according to the single-blind experimental design were treated.
No discontinuations during the treatment nor during the two weeks of post-treatment observation occurred; thus two groups of 50 observations for efficacy and tolerability are provided.

[7] = tested on: C. glabrata ATCC 2001; assay: Miconazole broth macrodilution test (optical density); type: cell-based, Candida glabrata
Text: as §1, §3, §2

[8] = tested on: C. parapsilosis ATCC 22019; assay: as above; type: cell-based, Candida parapsilosis
Text: as §1, §3, §2

[9] = tested on: C. krusei ATCC 6258; assay: as above; type: cell-based, Candida krusei
Text: as §1, §3, §2

[10] = tested on: C. albicans ATCC 10231; assay: as above; type: cell-based, Candida albicans
Text: as §1, §3, §2

[11] = Miconazole 1 μg/ml, broth macrodilution

OC(Cn1cncn1)(Cn1cncn1)c1ccc(F)cc1F [fluconazole]
MIC [1]: > 256 µg/mL
MIC [2]: > 256 µg/mL
MIC [3]: 1 µg/mL (≈ 3.27 µM)
MIC [4]: > 256 µg/mL

Clc1ccc(COC(Cn2ccnc2)c2ccc(Cl)cc2Cl)c(Cl)c1 (stereo not drawn) [Miconazole, miconazole]
optical density, OD ([5]; Miconazole 1.000 μg/ml): 1.931
optical density, OD [5, 11]: 1.950
optical density, OD ([5]; Miconazole 2.50 μg/ml): 1.927
optical density, OD ([5]; Miconazole 5.00 μg/ml): 1.908
optical density, OD ([5]; Miconazole 50 μg/ml): 1.846
optical density, OD ([5]; Miconazole 250 μg/ml): 1.942
optical density, OD ([5]; Miconazole 300 μg/ml): 1.937
optical density, OD ([5]; Miconazole 500 μg/ml): 1.903
local adverse events ([6]; 50 patients per group): 6 cases
Positive/negative ([6]; 3 days, 1 vaginal capsule at night for three consecutive days, 50 patients per group): 3/47
Positive/negative ([6]; Final (two weeks of post-treatment observation), 50 patients per group): 8/42
microbiological eradication of Candida, patients ([6]; at the end of the three-day treatment): 94%
frequency of local adverse events ([6]; female, human, in vivo, 3 days): 12%
Adverse events: Adverse ([6]; number of 50 patients): 47
Adverse events: Present ([6]; number of 50 patients): 3
Eradication: Failure ([6]; number of 50 patients): 3
Eradication: Relapse ([6]; number of 50 patients): 5
Eradication: Success ([6]; number of 50 patients): 42
Patient's opinion about efficacy: Acceptable ([6]; number of 50 patients): 5
Patient's opinion about efficacy: Excellent ([6]; number of 50 patients): 38
Patient's opinion about efficacy: Good ([6]; number of 50 patients): 4
Patient's opinion about efficacy: None ([6]; number of 50 patients): 3
Tolerability opinion: Acceptable ([6]; number of 50 patients): 3
Tolerability opinion: Excellent ([6]; number of 50 patients): 44
Tolerability opinion: Good ([6]; number of 50 patients): 3
Tolerability opinion: None ([6]; number of 50 patients): 0
optical density, OD ([7]; Miconazole 1.000 μg/ml): 2.198
optical density, OD [7, 11]: 2.260
optical density, OD ([7]; Miconazole 2.50 μg/ml): 2.260
optical density, OD ([7]; Miconazole 5.00 μg/ml): 2.246
optical density, OD ([7]; Miconazole 50 μg/ml): 2.239
optical density, OD ([7]; Miconazole 250 μg/ml): 2.212
optical density, OD ([7]; Miconazole 300 μg/ml): 2.215
optical density, OD ([7]; Miconazole 500 μg/ml): 2.213
MIC ([8]; Lodderomyces parapsilosis, ATCC22019, C. parapsilosis ATCC 22019): 1000 µg/mL (≈ 2400 µM)
optical density, OD ([8]; Miconazole 1.000 μg/ml): 0.295
optical density, OD [8, 11]: 1.515
optical density, OD ([8]; Miconazole 2.50 μg/ml): 1.115
optical density, OD ([8]; Miconazole 5.00 μg/ml): 0.975
optical density, OD ([8]; Miconazole 50 μg/ml): 0.894
optical density, OD ([8]; Miconazole 250 μg/ml): 0.701
optical density, OD ([8]; Miconazole 300 μg/ml): 0.415
optical density, OD ([8]; Miconazole 500 μg/ml): 0.314
optical density, OD ([9]; Miconazole 1.000 μg/ml): 1.972
optical density, OD [9, 11]: 1.990
optical density, OD ([9]; Miconazole 2.50 μg/ml): 1.900
optical density, OD ([9]; Miconazole 5.00 μg/ml): 1.893
optical density, OD ([9]; Miconazole 50 μg/ml): 1.994
optical density, OD ([9]; Miconazole 250 μg/ml): 2.004
optical density, OD ([9]; Miconazole 300 μg/ml): 1.999
optical density, OD ([9]; Miconazole 500 μg/ml): 1.988
optical density, OD ([10]; Miconazole 1.000 μg/ml): 1.464
optical density, OD [10, 11]: 1.906
optical density, OD ([10]; Miconazole 2.50 μg/ml): 1.910
optical density, OD ([10]; Miconazole 5.00 μg/ml): 1.901
optical density, OD ([10]; Miconazole 50 μg/ml): 1.905
optical density, OD ([10]; Miconazole 250 μg/ml): 1.916
optical density, OD ([10]; Miconazole 300 μg/ml): 1.889
optical density, OD ([10]; Miconazole 500 μg/ml): 1.863
